# Assay results reported in publication PMC3230782 (Peptides, 2011).
# Columns and labels:
# [1] = tested on: estrogen-stimulated growth of the immature mouse uterus; assay: immature mouse uterine growth inhibition assay; assay type: in vivo, mouse (Swiss Webster female); details: for effect on the growth inhibition activity of AFPep when combined: combination with AFPep (Figure 2A, 2C); for dose-response behaviour of inhibition of estrogen-stimulated uterine growth: peptide alone, range of doses i.p. (Figure 1)
# [2] = tested on: estrogen-stimulated growth of the immature mouse uterus; details: 30 (EMTPVNPG), 29 (AFPep); cited from earlier work
# [3] = earlier work; 30 (EMTPVNPG); 29 (AFPep); cited from earlier work
Substance,effect on the growth inhibition activity of AFPep when combined [1],dose-response behaviour of inhibition of estrogen-stimulated uterine growth [1],dose-response behaviour in anti-estrotrophic assay (earlier work) [2],shelf life [3]
cyclo[EKTOVNOGN] FS (lariat or depsi),decreased the activity of AFPep,little activity at any dose,,
EMTPVNPG,,,biphasic dose-response curve,very short shelf life
cyclo[EKTOVGOGN] FS (lariat or depsi),enhanced the activity of AFPep,no activity at any dose,,
